Data reported in ChEMBL document CHEMBL4007427, “Inhibition of the Aldehyde Dehydrogenase 1/2 Family by Psoralen and Coumarin Derivatives” (J Med Chem, 2017).

Tests used:
Retinal dehydrogenase 2 = biological target: T1, Retinal dehydrogenase 2 (Homo sapiens, UniProt O94788)
T1 sequence (O94788 whole entry): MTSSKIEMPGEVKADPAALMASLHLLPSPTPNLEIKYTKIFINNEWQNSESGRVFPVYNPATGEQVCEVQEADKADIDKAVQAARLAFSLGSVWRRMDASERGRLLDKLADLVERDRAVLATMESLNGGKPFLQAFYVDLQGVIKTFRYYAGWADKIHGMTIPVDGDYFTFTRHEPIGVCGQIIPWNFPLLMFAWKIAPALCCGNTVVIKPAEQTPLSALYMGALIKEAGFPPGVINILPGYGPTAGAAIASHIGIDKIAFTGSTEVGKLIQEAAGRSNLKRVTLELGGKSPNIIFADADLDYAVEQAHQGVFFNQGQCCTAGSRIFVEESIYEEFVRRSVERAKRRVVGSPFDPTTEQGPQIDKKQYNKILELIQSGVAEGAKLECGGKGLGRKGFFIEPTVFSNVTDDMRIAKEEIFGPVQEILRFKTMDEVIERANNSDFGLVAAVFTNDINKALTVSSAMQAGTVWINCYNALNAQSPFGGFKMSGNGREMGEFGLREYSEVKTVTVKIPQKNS
Description: Inhibition of full length recombinant human ALDH1A2 expressed in Escherichia coli BL21(DE3) assessed as reduction in dehydrogenase activity by measuring NAD(P)H level preincubated for 2 mins followed by addition of propionaldehyde as substrate in presence of NAD+ by spectrophotometric method

[1] = biological target: T2, Cytosolic 10-formyltetrahydrofolate dehydrogenase (Rattus norvegicus, UniProt P28037); test: Inhibition of rat ALDH1L1 assessed as reduction in dehydrogenase activity by measuring NAD(P)H level preincubated for 2 mins followed by addition of propionaldehyde as substrate in presence of NAD+ by spectrophotometric method
T2 sequence (P28037 whole entry): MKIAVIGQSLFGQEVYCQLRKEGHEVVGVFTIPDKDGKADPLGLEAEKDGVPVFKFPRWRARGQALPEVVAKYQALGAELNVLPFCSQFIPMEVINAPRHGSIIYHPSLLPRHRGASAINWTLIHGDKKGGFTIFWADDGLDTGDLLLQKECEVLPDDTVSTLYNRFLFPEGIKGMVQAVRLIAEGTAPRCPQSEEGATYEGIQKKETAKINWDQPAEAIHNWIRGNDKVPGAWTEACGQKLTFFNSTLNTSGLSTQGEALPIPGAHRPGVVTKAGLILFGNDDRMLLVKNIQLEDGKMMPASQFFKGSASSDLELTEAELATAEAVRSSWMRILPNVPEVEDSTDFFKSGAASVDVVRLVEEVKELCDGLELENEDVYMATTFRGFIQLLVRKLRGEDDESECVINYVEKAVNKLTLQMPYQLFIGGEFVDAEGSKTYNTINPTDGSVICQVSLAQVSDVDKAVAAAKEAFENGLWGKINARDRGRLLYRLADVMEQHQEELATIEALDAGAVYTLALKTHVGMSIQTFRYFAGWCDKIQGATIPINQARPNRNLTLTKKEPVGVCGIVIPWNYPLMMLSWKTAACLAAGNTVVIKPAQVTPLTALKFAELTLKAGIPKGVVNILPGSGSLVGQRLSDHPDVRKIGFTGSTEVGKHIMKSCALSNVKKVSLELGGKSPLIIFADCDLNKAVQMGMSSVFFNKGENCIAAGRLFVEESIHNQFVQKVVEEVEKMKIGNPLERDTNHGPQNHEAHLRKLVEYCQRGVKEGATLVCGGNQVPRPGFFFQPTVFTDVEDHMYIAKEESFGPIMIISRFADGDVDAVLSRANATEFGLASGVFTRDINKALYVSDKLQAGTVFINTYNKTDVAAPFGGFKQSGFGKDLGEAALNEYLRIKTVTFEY

[2] = biological target: T3, Aldehyde dehydrogenase 1A1 (Homo sapiens, UniProt P00352)
T3 sequence (P00352 whole entry): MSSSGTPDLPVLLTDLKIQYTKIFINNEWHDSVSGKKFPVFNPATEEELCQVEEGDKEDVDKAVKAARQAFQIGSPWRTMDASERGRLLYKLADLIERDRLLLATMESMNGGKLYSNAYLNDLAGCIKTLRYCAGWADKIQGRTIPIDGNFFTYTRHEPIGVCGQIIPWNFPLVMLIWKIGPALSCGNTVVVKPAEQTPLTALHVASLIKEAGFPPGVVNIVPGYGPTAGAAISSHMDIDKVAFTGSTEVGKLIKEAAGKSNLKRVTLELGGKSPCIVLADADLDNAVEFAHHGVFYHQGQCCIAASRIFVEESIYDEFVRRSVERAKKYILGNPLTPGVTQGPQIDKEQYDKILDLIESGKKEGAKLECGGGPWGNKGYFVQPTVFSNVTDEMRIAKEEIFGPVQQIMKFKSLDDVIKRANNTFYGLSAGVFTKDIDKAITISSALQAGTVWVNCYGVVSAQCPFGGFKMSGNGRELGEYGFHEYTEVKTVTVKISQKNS
Description: Inhibition of full length recombinant human ALDH1A1 expressed in Escherichia coli BL21(DE3) assessed as reduction in dehydrogenase activity by measuring NAD(P)H level preincubated for 2 mins followed by addition of propionaldehyde as substrate in presence of NAD+ by spectrophotometric method

[3] = biological target: T4, Retinaldehyde dehydrogenase 3 (Homo sapiens, UniProt P47895)
T4 sequence (P47895 whole entry): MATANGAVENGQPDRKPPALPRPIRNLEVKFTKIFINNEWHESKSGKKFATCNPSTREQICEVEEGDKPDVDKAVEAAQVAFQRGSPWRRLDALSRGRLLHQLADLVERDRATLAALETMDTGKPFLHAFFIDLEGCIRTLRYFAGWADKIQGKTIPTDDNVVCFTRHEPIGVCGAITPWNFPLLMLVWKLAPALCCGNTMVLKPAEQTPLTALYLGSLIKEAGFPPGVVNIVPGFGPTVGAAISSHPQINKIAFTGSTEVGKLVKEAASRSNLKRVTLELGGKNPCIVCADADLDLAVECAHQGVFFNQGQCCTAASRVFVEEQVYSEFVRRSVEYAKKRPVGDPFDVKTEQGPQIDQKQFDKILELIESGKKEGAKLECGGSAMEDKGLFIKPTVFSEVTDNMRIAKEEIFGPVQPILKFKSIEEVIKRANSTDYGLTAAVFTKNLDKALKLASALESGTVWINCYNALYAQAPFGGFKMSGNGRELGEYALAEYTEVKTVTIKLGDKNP
Description: Inhibition of full length recombinant human ALDH1A3 expressed in Escherichia coli BL21(DE3) assessed as reduction in dehydrogenase activity by measuring NAD(P)H level preincubated for 2 mins followed by addition of propionaldehyde as substrate in presence of NAD+ by spectrophotometric method

[4] = biological target: T5, Aldehyde dehydrogenase, mitochondrial (Homo sapiens, UniProt P05091)
T5 sequence (P05091 whole entry): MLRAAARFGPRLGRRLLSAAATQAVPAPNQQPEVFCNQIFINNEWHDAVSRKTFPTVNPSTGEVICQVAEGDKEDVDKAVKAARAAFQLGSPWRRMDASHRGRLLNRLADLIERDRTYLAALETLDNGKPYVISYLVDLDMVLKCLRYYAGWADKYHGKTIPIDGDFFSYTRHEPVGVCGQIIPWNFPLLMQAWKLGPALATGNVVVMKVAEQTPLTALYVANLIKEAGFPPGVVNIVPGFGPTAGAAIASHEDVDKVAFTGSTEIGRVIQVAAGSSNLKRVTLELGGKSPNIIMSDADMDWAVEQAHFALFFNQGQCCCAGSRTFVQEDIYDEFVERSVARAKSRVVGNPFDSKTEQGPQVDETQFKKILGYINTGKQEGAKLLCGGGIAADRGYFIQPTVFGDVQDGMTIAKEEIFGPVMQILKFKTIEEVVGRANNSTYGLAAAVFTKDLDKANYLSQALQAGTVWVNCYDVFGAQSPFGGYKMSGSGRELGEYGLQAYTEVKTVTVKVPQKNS
Description: Competitive inhibition of full length recombinant human ALDH2 expressed in Escherichia coli assessed as reduction in dehydrogenase activity using propionaldehyde as substrate in presence of varying levels NAD+ by Lineweaver-Burk plot analysis

Work on `CCCc1cc(=O)oc2cc3oc(C)c(C)c3cc12` yielded an IC50 (Retinal dehydrogenase 2) of 69 nM.

For `CCCc1c(C)c2cc3c(C)c(C)oc3cc2oc1=O`, the IC50 [1] was “Not Active”, the IC50 [2] was 220 nM and the IC50 (Retinal dehydrogenase 2) was 300 nM. It also gave an IC50 [3] of 400 nM and a Ki [4] of 19 nM.

`C/C(=N\O)c1cc2cc(Br)ccc2oc1=O` showed a Ki [4] of 2400 nM.

For `COC(=O)C(C)Oc1ccc2c(C)cc(=O)oc2c1` (stereo not drawn), the IC50 [1] was “Not Active” and the Ki [4] was 310 nM.

`Cc1oc2cc3oc(=O)c(C)c(C)c3cc2c1C` was tested, and the IC50 [1] was “Not Active”, the IC50 (Retinal dehydrogenase 2) was 330 nM and the IC50 [3] was 270 nM.

In the case of `CCCc1c(C)c2cc3c(C)coc3cc2oc1=O`, the IC50 [1] is reported as “Not Active”, the IC50 [2] is reported as 340 nM and the IC50 (Retinal dehydrogenase 2) is reported as 760 nM. For the same molecule, the IC50 [3] was 1100 nM.

`Cc1oc2cc3oc(=O)c4c(c3cc2c1C)CCC4` was tested, and the IC50 [2] was 170 nM, the IC50 (Retinal dehydrogenase 2) was 130 nM and the IC50 [3] was 170 nM.

`Cc1oc2cc3oc(=O)c(CCC(=O)N4CCCCC4)c(C)c3cc2c1C` was tested, and the IC50 [2] was 130 nM, the IC50 (Retinal dehydrogenase 2) was 1600 nM and the IC50 [3] was 14000 nM. It also gave a Ki [4] of 1100 nM.
